In paper PMC8196580, “Identification of Kaurane-Type Diterpenes as Inhibitors of Leishmania Pteridine Reductase I” (Molecules, 2021):
Where two headings read alike, the source gives them in different places.

Columns and labels:
L. major [1] = experiment: ChEMBL dataset of pIC50 values against L. major used for the RF model (Table S1); type: cell-based, Leishmania major; also: call rule not given here
L. major [2] = tested on: L. major; design: method as in ChEMBL; conditions: ref ChEMBL, cited from earlier work
[3] = Active/Inactive class assigned to ChemBL structures for Random forest model construction (Table S1)
[4] = ChemBL structures with pIC50 values used for Random forest model construction (Table S1)
[5] = Active/Inactive class assigned to the ChEMBL pIC50 value for Random forest model construction, ref ChEMBL
[6] = ChemBL structures with pIC50 values used for Random forest model construction, L. major

Structure (SMILES) | Outcome (L. major [1]; [3]) | pIC50 Value (L. major [2]; [4]) | Outcome (L. major [1]; [5]) | pIC50 Value (L. major [2]; [6])
C/C=C(\C)C(=O)N[C@H]1CC[C@]2(C)[C@H]3CC[C@]4(C)[C@@H]([C@H](C)NC)CC[C@H]4[C@@H]3CC[C@H]2[C@H]1OC(C)=O [CHEMBL504924] | Active | 5.82 | – | –
COc1ccccc1-c1nnc(-c2ccc(C(=O)N/N=C/c3cccc(O)c3)cc2)o1 [CHEMBL4103014] | – | – | Inactive | 4.74
O=[N+]([O-])c1ccc(-c2nnc(NCc3cn(Cc4ccc(Cl)cc4)nn3)s2)o1 [CHEMBL1951527] | – | – | Inactive | 4.05
COc1ccc(-c2ccccc2)c2c1C(C)=N[C@H](C)C2 [CHEMBL1275787] | – | – | Inactive | 4.00
Cc1ccc(-c2c(-c3ccccc3)nc3ccccn23)cc1 [CHEMBL2151857] | Active | 5.40 | – | –
CCOc1ccc(N2C(=O)C(c3ccccc3)(c3ccccc3)C2c2cn(C)c3ccccc23)cc1 (stereo not shown) [CHEMBL2071562] | Active | 5.93 | – | –
Cc1cccc2oc(=O)c3c(c12)O[C@H](C)[C@@]3(C)CC(=O)[C@@H]1OC1(C)C [CHEMBL517042] | – | – | Inactive | 4.87
CC(c1ccccc1)N1CN(CC(=O)O)CSC1=S (stereo not shown) [CHEMBL4286679] | – | – | Inactive | 4.51
O=C(C(Cl)Cl)N1c2ccccc2Oc2ccccc21 [CHEMBL3759299] | – | – | Inactive | 4.09
C/C=C/C=C/c1nc2ccccc2n2cccc12 [CHEMBL3260206] | Active | 5.33 | – | –
C=C[C@@]1(C)CC2=C(C[C@H]1C(=C)C)C(=O)C=CC2=O [CHEMBL401583] | – | – | Inactive | 4.06
COc1cc(/C=N/NC(N)=S)ccc1OCc1cn(CC(=O)c2ccc(C)cc2)nn1 [CHEMBL4163267] | Active | 5.30 | – | –
Cc1cccc2cc(/C=C/C(=O)c3cc(Cl)sc3Cl)c(Cl)nc12 [CHEMBL1940868] | Active | 5.65 | – | –
Cc1ccc(-c2nc3ccc([N+](=O)[O-])cc3[nH]2)cc1 [CHEMBL1446966] | Active | 5.46 | – | –
COCCOC(=O)C1=C(C)NC(C)=C(C(=O)OC/C=C/c2ccccc2)C1c1cccc([N+](=O)[O-])c1 (stereo not shown) [CHEMBL452076] | – | – | Inactive | 4.67
CN(C)Cc1ccc(Nc2c3ccc(N)cc3nc3cc(N)ccc23)cc1 [CHEMBL34804] | Active | 5.30 | – | –

Structure (SMILES) | Outcome (L. major [1]; [3]) | pIC50 Value (L. major [2]; [4]) | Outcome (L. major [1]; [5]) | pIC50 Value (L. major [2]; [6])
COc1ccccc1-c1nnc(-c2ccc(C(=O)N/N=C/c3cccc(O)c3O)cc2)o1 [CHEMBL4065149] | Active | 5.85 | – | –
COc1cccc2c1C(=O)C=C(C)C2=O [CHEMBL1531003] | Active | 5.48 | – | –
O=C(O)c1ccc(-c2c(-c3ccccc3)nc3ccccn23)cc1 [CHEMBL2151867] | – | – | Inactive | 4.00
O=[N+]([O-])c1ccc2nc(-c3ccccc3[N+](=O)[O-])[nH]c2c1 [CHEMBL1481977] | Active | 5.59 | – | –
COc1ccc(/C=N/NC(=O)c2ccc(-c3nnc(-c4ccccc4OC)o3)cc2)cc1O [CHEMBL4069376] | – | – | Active | 5.19
Cc1ccccc1Cc1nnc2sc(-c3ccc(Cl)cc3)nn12 [CHEMBL1256802] | – | – | Inactive | 4.00
COc1ccccc1-c1nnc(-c2ccc(C(=O)N/N=C/c3ccncc3)cc2)o1 [CHEMBL4080524] | – | – | Inactive | 4.41
COc1ccccc1C(=O)N/N=C/c1cccc(O)c1O [CHEMBL2382046] | – | – | Inactive | 4.17
CC1=C(C(=O)/C=C/c2ccc(O)cc2)C(c2ccccc2)NC(=O)N1C (stereo not shown) [CHEMBL3787563] | Active | 5.77 | – | –
CC[C@H](CO)Nc1nc(NCc2cc(C)ccc2O)c2ncn(C(C)C)c2n1 [CHEMBL3423080] | Active | 5.64 | – | –
COc1cc(OC)c2c(C)[n+](-c3ccc(C(C)(C)C)cc3)c(C)cc2c1.F[B-](F)(F)F [CHEMBL516763] | Active | 5.57 | – | –
Cc1ccc(N2C(=O)C(c3ccccc3)(c3ccccc3)C2c2cn(C)c3ccccc23)cc1 (stereo not shown) [CHEMBL2071561] | Active | 5.88 | – | –
Cc1ccc2cc(C3CC(c4ccc(Cl)s4)=NN3)c(Cl)nc2c1 (stereo not shown) [CHEMBL2236141] | Active | 5.64 | – | –
CCCCCCNc1ccc(Nc2c3ccccc3nc3ccccc23)cc1OC [CHEMBL88507] | Active | 6.40 | – | –
O=[N+]([O-])c1ccc(-c2nnc(N3CCOCC3)s2)o1 [CHEMBL365770] | – | – | Active | 5.28
Cc1ccc(C2(c3ccc(C)cc3)C(=O)N(c3ccc(Cl)cc3)C2c2cn(C)c3ccccc23)cc1 (stereo not shown) [CHEMBL2071567] | Active | 5.94 | – | –
